Experimental data from PubChem BioAssay AID179 (DTP/NCI, 2004).
Active and inactive are the calls of the source.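 Rule for the calls: active = compounds giving half or more protection of infected cells from virus-caused growth loss, again on retest; inactive = the rest.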

Test system: CEM cells HIV-1 protection, formazan growth assay
Assay: NCI AIDS Antiviral Assay
Settings: for IC50: measured here: growth of uninfected CEM cells
Procedure, shortened: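 Human CEM cells, uninfected and HIV-1-infected, received five drug concentrations, and growth was read by soluble formazan assay. Compounds giving at least 50% protection were retested; reproducible 100% protection defined confirmed active.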

Nc1nc2c(c(=O)[nH]1)N(C=O)C(CNc1ccc(C(=O)N[C@@H](CCC(=O)O)C(=O)O)cc1)CN2 (stereo not given in full)
EC50: > 200 µM | IC50: > 200 µM

CCOP(=O)(OCC)/C(C#N)=C/c1ccc(Oc2ccccc2)cc1
EC50: > 20.4 µM | IC50: > 20.4 µM

CCCCCCCC(=O)[O-].N.N.N.N.N.[Co+3].[O-][Cl+3]([O-])([O-])[O-]
outcome: inactive

COc1ccc(OC)c(-c2cn3c(n2)sc2ccccc23)c1
EC50: > 200 µM | IC50: 50.1 µM

COc1cc2c(c(OC)c1OC)C(=O)[C@@H](OC(=O)CCCCl)[C@H]2N
EC50: > 200 µM | IC50: > 200 µM

CC1CCC(=O)NCCCCC(=O)N1 (stereo not given)
EC50: > 36.3 µM | IC50: > 36.3 µM

CC(=O)c1cc(CC2Cc3cc4c(cc3C2=O)CCC4)cc2c1CCC2 (stereo not given)
EC50: > 200 µM | IC50: 12.9 µM

COc1ccc(S(=O)(=O)OC)cc1C(=O)c1cc(S(=O)(=O)OC)ccc1OC
EC50: > 23.4 µM | IC50: > 23.4 µM

CN(C)/C=N/n1c2ccccc2c2ccccc21
EC50: > 200 µM | IC50: 110 µM

N#CSCC(Cl)=CCl (mixture of isomers)
EC50: > 200 µM | IC50: 49 µM

O=C(O)/C=C\C(=O)Nc1ccccc1O
EC50: > 200 µM | IC50: > 200 µM

CCCCCNC(=O)CCCCCCCCCCCNC(=O)CCCCCCCCCCN1C=CC(=CC=C2C=CC(=O)C=C2)C=C1
outcome: inactive

Clc1ccc(-c2nnc3c4nnc(-c5ccc(Cl)cc5Cl)n4c4ccccc4n23)c(Cl)c1
outcome: inactive

Cc1cn(C2CC(CCN(O)CC3OC(n4cc(C)c(=O)[nH]c4=O)CC3O[Si](C)(C)C(C)(C)C)C(CO[Si](C)(C)C(C)(C)C)O2)c(=O)[nH]c1=O (stereo not given)
EC50: > 200 µM | IC50: 11.5 µM

N#CC(C#N)=Cc1ccccc1F
EC50: > 102 µM | IC50: 17.4 µM

CCOC(=O)NN(C(=O)OCC)C(C(=O)C1CCCCC1)N(NC(=O)OCC)C(=O)OCC
outcome: inactive

COc1cc(C)cc2c(-c3c(OC(C)=O)cc(OC(C)=O)c4c3C[C@H](C)N(C(C)=O)[C@H]4C)cc(-c3cc(-c4c(OC(C)=O)cc(OC(C)=O)c5c4C[C@H](C)N(C(C)=O)[C@H]5C)c4cc(C)cc(OC)c4c3O)c(O)c12
EC50: > 200 µM | IC50: 40.7 µM

CC1=CC[C@@]2(C)CC[C@](O)(C(C)C)C2C(OC(=O)c2ccccc2)C1 (stereo not given in full)
EC50: > 200 µM | IC50: 13.2 µM

COC1C(OC(=O)c2ccc(C)[nH]2)C(O)C(Oc2ccc3c(O)c(NC(=O)c4ccc(O)c(CC=C(C)C)c4)c(=O)oc3c2Cl)OC1(C)C (stereo not given)
EC50: > 200 µM | IC50: 15.8 µM

O=c1c2ccccc2[se]n1-c1ccc(I)cc1
EC50: > 11 µM | IC50: 10.7 µM

C/C=C1\CN2CCc3c([nH]c4ccccc34)C2CC1C(=O)OC (stereo not given)
EC50: > 219 µM | IC50: > 219 µM

CCOc1ccc2nc(NC(=O)/C(CC(=O)CC(C3=C(O)c4ccccc4CC3=O)c3ccccc3)=N\O)sc2c1 (stereo not given)
EC50: > 4.79 µM | IC50: > 4.79 µM

OCC1OC(n2cnc3cncnc32)CC1O (stereo not given)
outcome: inactive

COC(=O)N1CC2CCCC(C2)c2ccccc21 (stereo not given)
EC50: > 204 µM | IC50: 186 µM

NC(=O)NNc1nc2ccccc2c(=O)n1NC(=O)C(=O)Nc1ccc(Cl)cc1Cl
EC50: > 79.4 µM | IC50: > 79.4 µM

CC(C)(C)C(=O)OCC1CCC(n2cnc3c(=O)[nH]c(N)nc32)O1 (stereo not given)
EC50: > 15.5 µM | IC50: > 15.5 µM

Cc1cnc2sn(-c3ccc(Oc4ccccc4)cc3)c(=O)c2c1
EC50: > 200 µM | IC50: 10 µM

CCC(N)CS(=O)(=O)O (stereo not given)
EC50: > 200 µM | IC50: > 200 µM

O=S(Nc1ccccc1)c1ccc(N2CCOCC2)cc1 (stereo not given)
EC50: > 200 µM | IC50: 18.2 µM

CCCOC(=O)CCC(NC(=O)c1ccc(Nc2nc3ccccc3nc2-c2cccs2)cc1)C(=O)OCCC (stereo not given)
EC50: > 4.9 µM | IC50: > 4.9 µM

C(#Cc1ccccc1)SC1=C(c2ccccc2)S/C(=C(\SC#Cc2ccccc2)c2ccccc2)S1
EC50: > 200 µM | IC50: > 200 µM

CCCN(CCCCC(NC(C)=O)C(=O)NCc1ccccc1)C(=O)N(CCCl)N=O (stereo not given)
EC50: > 79.4 µM | IC50: > 79.4 µM

[N-]=[N+]=NC12CC3C4CC5CC3C(C1)C(C5)C4C2
EC50: > 282 µM | IC50: 162 µM

Cc1ccc(C(=O)/C(C#N)=C/Nc2c(C)n(C)n(-c3ccccc3)c2=O)cc1
EC50: > 200 µM | IC50: > 200 µM

COC(=O)C1=CC2OC13CC1CCC3(C2=O)C1(C)C (stereo not given)
outcome: inactive

Cc1n[nH]c(=O)c2cc3oc4ccccc4c3n12
EC50: > 107 µM | IC50: 32.4 µM

CN(C)C=Nc1ccc2nonc2c1
EC50: > 200 µM | IC50: 151 µM

Oc1c(CN2CCOCC2)ccc2cccnc12
EC50: > 200 µM | IC50: 3.72 µM

N#Cc1nc(-c2cc([N+](=O)[O-])cc([N+](=O)[O-])c2)oc1N
EC50: > 100 µM | IC50: > 100 µM

NC(Cn1ccc(=O)c(O)c1)C(=O)O (stereo not given)
EC50: > 200 µM | IC50: 95.5 µM

COc1ccc(N2C(=O)C3c4[nH]c5ccc(C)cc5c4C4CCC(C)CC4C3C2=O)cc1 (stereo not given)
EC50: > 100 µM | IC50: > 100 µM

CSc1n[nH]c(N)c1C(=O)Nc1ccc(Cl)cc1
EC50: 0.457 µM | IC50: 1.86 µM

NC(=O)CCC(NCc1c2ccccc2[n+]([O-])c2ccccc12)C(=O)O (stereo not given)
outcome: inactive

COc1ccc2c(O)c(Oc3ccc(Cl)cc3)c(=O)oc2c1
outcome: inactive

NC(=O)C(=O)C(c1ccccc1)S(=O)(=O)Cc1ccccc1 (stereo not given)
EC50: > 200 µM | IC50: > 200 µM

Cn1cnc([N+](=O)[O-])c1Sc1nc2cccnc2s1
EC50: > 170 µM | IC50: 4.57 µM

COC1=C(C)C(=O)c2ncccc2C1=O
outcome: inactive

CSC1=C(C(=O)Nc2ccc(C)cc2)C(N)=NC1=O
EC50: > 100 µM | IC50: > 100 µM

CC(C)Oc1cc2c(c3oc(=O)c4c(c13)CCCC4)C(=O)[C@H](C)[C@@H](C)O2
EC50: > 200 µM | IC50: 12.3 µM

CCCCCCCCCCCCCCCC(=O)OCC1OC(OC)C(NC(=O)N(CCCl)N=O)C(O)C1O (stereo not given)
EC50: > 33.1 µM | IC50: 6.92 µM

O=C(O)C12C(=O)NC(=O)C1(C(=O)O)C21CCCCC1 (stereo not given)
EC50: > 933 µM | IC50: > 933 µM

CCc1cc2c(oc3cc(C)ccc32)c(=O)n1C
EC50: > 200 µM | IC50: 97.7 µM

COc1cc(C(=O)NC2CCc3cc(OC)c(OC)c(OC)c3-c3ccc(OC)c(=O)cc32)cc(OC)c1OC (stereo not given)
EC50: > 0.2 µM | IC50: 0.0661 µM

[Cu+2].[NH-]c1ccccc1C(=O)O.[NH-]c1ccccc1C(=O)O
EC50: > 200 µM | IC50: 17.4 µM

O=[N+]([O-])c1cccc2nsnc12
EC50: > 145 µM | IC50: 23.4 µM

CC(C(C(=O)O)S(=O)(=O)O)C(C(=O)O)S(=O)(=O)O (stereo not given)
EC50: > 100 µM | IC50: 20.4 µM

Cc1nc(C(=O)O)c(C(=O)O)[nH]1
EC50: > 200 µM | IC50: > 200 µM

O=C(/C(=C\c1ccc(Cl)cc1)c1ccccc1)c1ccccc1
EC50: > 11.7 µM | IC50: > 11.7 µM

COc1nccnc1NS(=O)(=O)c1ccc(N)cc1
EC50: > 200 µM | IC50: > 200 µM

O=C1c2c(F)c(F)c(F)c(F)c2SC2=NCCN12
EC50: > 20 µM | IC50: 2 µM

Nc1nnc(-c2ccco2)c(-c2ccco2)n1
EC50: > 200 µM | IC50: 186 µM

COc1ccc(/C=C/c2ccc3ccccc3n2)cc1OC
EC50: > 200 µM | IC50: 36.3 µM

CC(=O)Nc1ccc(Nc2cc(=O)n(C)c(=O)[nH]2)cc1
EC50: > 200 µM | IC50: > 200 µM

NC1N=C(c2ccc(Cl)cc2)C2=C(N1)c1ccccc1CC2 (stereo not given)
EC50: > 200 µM | IC50: 6.76 µM

CC(C)(Br)C(=O)C(Br)Br
EC50: > 200 µM | IC50: 5.25 µM

CC(C)(C)OC(=O)NC(Cc1ccccc1)C(=S)N1CCCC1 (stereo not given)
EC50: 56.2 µM | IC50: 141 µM

COC(=O)[C@@H]1C[C@H]2[C@H](c3ccccc3Br)[C@@H](OC(C)=O)[C@@H](OCc3ccccc3)ON2O1
EC50: > 200 µM | IC50: > 200 µM

COC1OC2C(CO)OC(n3ncc4c3ncn3cnnc43)C2O1 (stereo not given)
EC50: > 234 µM | IC50: > 234 µM

O=C(/C=C/c1ccsc1)c1ccsc1
EC50: > 200 µM | IC50: 3.39 µM

CCSc1c2ccccc2nc2c(OC)ccc(OC)c12
outcome: inactive

CC1=NS(=O)(=O)NC(C)(C)C1
EC50: > 200 µM | IC50: > 200 µM

C=C1CCCCCCCCC/C=C/1SCCCSC
EC50: > 200 µM | IC50: > 200 µM

N#C/C(=C1\SC(N=Nc2ccc(Cl)cc2)C(=O)N1c1ccccc1)c1nc2ccccc2[nH]1 (stereo not given)
EC50: > 3.8 µM | IC50: > 3.8 µM

Clc1ccc(/C=N/Nc2nnc3c(n2)[nH]c2ccccc23)cc1
EC50: > 200 µM | IC50: > 200 µM

C=C1c2[nH]c3ccccc3c2CC(C(=O)O)N1C(O)c1ccc(S(=O)(=O)O)cc1 (stereo not given)
outcome: inactive

COP(=O)(OC)C(NC=O)P(=O)(OC)OC
EC50: > 200 µM | IC50: > 200 µM

Cc1cc(S(=O)(=O)Nc2n[nH]c(-c3ccccn3)n2)c(S)cc1Cl
EC50: > 200 µM | IC50: 4.17 µM

COc1cc(C2C(C(=O)Nc3ccccc3C)=C(C)NC(C)=C2C(=O)Nc2ccccc2C)ccc1O
EC50: > 363 µM | IC50: > 200 µM

Cc1cc(-c2c(O)c3c(ccc4ccccc43)oc2=O)no1
EC50: > 200 µM | IC50: 93.3 µM

COc1ccc2c(=O)c(-c3ccc4c(c3)OCO4)c(C)oc2c1
EC50: > 200 µM | IC50: 42.7 µM

COc1ccc(/C=C2\C(=O)N(C)C(=O)c3cc(OC)c(OC)cc32)cc1OC
EC50: > 100 µM | IC50: 51.3 µM

CC(C)SC(C)(NC(=O)C1C(C)(C)CCC1(C)C)C(=O)O (stereo not given)
EC50: > 200 µM | IC50: > 200 µM

Cc1c(O)c(C)c2c(C)cn(C(=O)C(C)(C)C)c2c1C
EC50: > 200 µM | IC50: 30.2 µM

COC(=O)CCC1CCc2c(OC)ccc(OC)c2C1=O (stereo not given)
outcome: inactive

NC(=S)N/N=C1\COC(C(F)(F)F)(C(F)(F)F)C1
EC50: > 200 µM | IC50: 166 µM

CCOC(=O)C(NC(=O)c1ccccc1)(Nc1ccc(S(=O)(=O)Nc2nc(C)cc(C)n2)cc1)C(F)(F)F (stereo not given)
EC50: > 200 µM | IC50: > 200 µM

CC(=Nc1ccc(N(C)C)cc1)c1ccccc1
EC50: > 200 µM | IC50: 28.8 µM

O=C1CC(=O)N(CCc2ccncc2)C(=O)N1CCc1ccncc1
outcome: inactive | IC50: > 200 µM

COc1ccc2cc1Oc1ccc(cc1)CC1c3cc(c(OC)cc3CCN1C)Oc1c(OC)c(OC)c(OC)c3c1[C@H](C2)N(C)CC3 (stereo not given in full)
outcome: inactive
